Literature values as cited in patent US4842859A, “Pharmaceutical compositions for reducing hyperlipidemia and platelet-aggregation” (priority 1986, dated 1989).

Legend:
[1] = system: transient ischemic attacks; details: men; prior art
[2] = patients; prior art; listed as clofibrate

Compound	effect on incidence of transient ischemic attacks [1]	side effects / toxic effects [2]
CC(=O)Oc1ccccc1C(=O)O [Aspirin]	decrease the incidence of transient ischemic attacks	–
CCOC(=O)C(C)(C)Oc1ccc(Cl)cc1 [Clofibrate]	–	decreased libido and breast tenderness
